Tests used:
[1] = tested on: AMPK; assay: AMPK activation assay (western blot phospho-AMPK Thr172) in 3T3-L1; assay type: cell-based, mouse; conditions: 3T3-L1 cells, 30 min treatment
Experimental: (§1) Effects of compounds on AMPK activation were analyzed in mouse muscle cell C2C12, mouse fibroblast 3T3-L1 and human hepatocyte Hep G2. Those cell lines were cultured in high-glucose Dulbecco's modified Eagle's medium (DMEM) containing 10% fetal bovine serum (FBS), 4 mM L-glutamine, 2 mM sodium pyruvate and 1% penicillin/streptomycin (Invitrogen GibcoBRL, Carlsbad, Calif., USA) at 37° C. under 5% CO2. Cells were plated at 3×10^5 per well (6-well plate). 24 h after plating, cells were treated with indicated compounds for 30 min followed by cell lysis and western blot analysis. Equal amount of protein were separated by SDS-PAGE and then electroblotted on to PVDF membranes. Membranes were blocked with 3% BSA in PBS for 60 min and incubated with anti-phospho-AMPK (Thr172) antibody (1:2,000, Cell signaling), anti-AMPK antibody (1:2,000, Cell signaling), anti-Glut4 antibody (1:1,000, Millipore) or anti-actin antibody (1:5,000; Chemicon International) at 4° C. overnight followed by the corresponding secondary antibody for 1 h at room temperature (RT). Immunoreactive bands were detected by enhanced chemiluminescence (ECL; Pierce, Rockford, Ill., USA) and recorded using Kodakfilm (Rochester, N.Y., USA). The detected signals were scanned and then quantified by using TotalLab Quant software (TotalLab).

[2] = tested on: AMPK; assay: AMPK activation assay (western blot phospho-AMPK Thr172) in C2C12; assay type: cell-based, mouse; conditions: C2C12 cells, 30 min treatment
Experimental: as §1

[3] = tested on: AMPK; assay: AMPK activation assay (western blot phospho-AMPK Thr172) in Hep G2; assay type: cell-based, human; conditions: Hep G2 cells, 30 min treatment
Experimental: as §1

| Compound | AMPK activation (% to control) 3T3-L1 ([1]; 1 microM) | AMPK activation (% to control) 3T3-L1 ([1]; 10 microM) | AMPK activation (% to control) 3T3-L1 ([1]; 100 microM) | AMPK activation (% to control) 3T3-L1 ([1]; 200 microM) | AMPK activation (% to control) C2C12 ([2]; 1 microM) | AMPK activation (% to control) C2C12 ([2]; 10 microM) | AMPK activation (% to control) C2C12 ([2]; 100 microM) | AMPK activation (% to control) C2C12 ([2]; 200 microM) | AMPK activation (% to control) Hep G2 ([3]; 1 microM) | AMPK activation (% to control) Hep G2 ([3]; 10 microM) | AMPK activation (% to control) Hep G2 ([3]; 100 microM) | AMPK activation (% to control) Hep G2 ([3]; 200 microM) |
| --- | --- | --- | --- | --- | --- | --- | --- | --- | --- | --- | --- | --- |
| O=C1CCNC(=O)N1 [5,6-dihydrouracil] | 116 % to control | 159 % to control | 268 % to control | 341 % to control | 108 % to control | 114 % to control | 207 % to control | 326 % to control | 120 % to control | 167 % to control | 274 % to control | 360 % to control |
| Clc1cccc(Nc2ncnc3nc[nH]c23)c1 [6-(3-chloroanilino)purine] | 116 % to control | 130 % to control | 217 % to control | 301 % to control | 108 % to control | 118 % to control | 186 % to control | 307 % to control | 106 % to control | 109 % to control | 212 % to control | 319 % to control |
| Nc1cc[nH]c(=O)n1 [Cytosine] | 117 % to control | 127 % to control | – | 310 % to control | 119 % to control | 158 % to control | 253 % to control | 361 % to control | 117 % to control | 164 % to control | 281 % to control | 359 % to control |
| CN(C)c1nc(O)c2[nH]cnc2n1 [Example 2-Dimethylamino-6-hydroxypurine, 2-Dimethylamino-6-hydroxypurine] | 106 % to control | 108 % to control | 205 % to control | 264 % to control | 105 % to control | 111 % to control | 229 % to control | 298 % to control | 117 % to control | 132 % to control | 185 % to control | 218 % to control |
| CC(C)CCNc1nc(N)nc2nc[nH]c12 [Example 2-amino-6-isopentylaminopurine, 2-amino-6-isopentylaminopurine] | 110 % to control | 169 % to control | 271 % to control | 361 % to control | 104 % to control | 114 % to control | 238 % to control | 305 % to control | 117 % to control | 174 % to control | 250 % to control | 341 % to control |
| Nc1nc(S)c2[nH]cnc2n1 [Example 2-amino-6-mercaptopurine, 2-amino-6-mercaptopurine] | 105 % to control | 119 % to control | 251 % to control | 277 % to control | 118 % to control | 122 % to control | 228 % to control | 284 % to control | 112 % to control | 124 % to control | 209 % to control | 261 % to control |
| CNc1nc(N)nc2nc[nH]c12 [Example 2-amino-6-methylaminopurine, 2-amino-6-methylaminopurine] | 109 % to control | 135 % to control | 220 % to control | 332 % to control | 119 % to control | 187 % to control | 215 % to control | 351 % to control | 114 % to control | 139 % to control | 230 % to control | 348 % to control |
| Nc1nc(NCc2ccccc2)nc2nc[nH]c12 [Example 2-benzylamino-6-aminopurine, 2-benzylamino-6-aminopurine] | 119 % to control | 147 % to control | 217 % to control | 308 % to control | 110 % to control | 128 % to control | 259 % to control | 312 % to control | 105 % to control | 116 % to control | 235 % to control | 364 % to control |
| Nc1nc(Br)nc2nc[nH]c12 [Example 2-bromoadenine, 2-bromoadenine] | 119 % to control | 188 % to control | 277 % to control | 361 % to control | 116 % to control | 172 % to control | 263 % to control | 349 % to control | 113 % to control | 190 % to control | 253 % to control | 354 % to control |
| O=c1[nH]c(Br)nc2nc[nH]c12 [Example 2-bromohypoxanthine, 2-bromohypoxanthine] | 111 % to control | 176 % to control | 245 % to control | 357 % to control | 108 % to control | 142 % to control | 214 % to control | 321 % to control | 110 % to control | 160 % to control | 242 % to control | 359 % to control |
| Oc1nc(Cl)nc2nc[nH]c12 [Example 2-chloro-6-hydroxypurine, 2-chloro-6-hydroxypurine] | 108 % to control | 145 % to control | 243 % to control | 356 % to control | 109 % to control | 156 % to control | 277 % to control | 331 % to control | 110 % to control | 163 % to control | 249 % to control | 375 % to control |
| Nc1nc(Cl)nc2nc[nH]c12 [Example 2-chloroadenine, 2-chloroadenine] | 118 % to control | 143 % to control | 271 % to control | 311 % to control | 110 % to control | 155 % to control | 284 % to control | 326 % to control | 116 % to control | 139 % to control | 220 % to control | 314 % to control |
